What is called IC50 is the point on the concentration scale where inhibition reaches its midpoint. Read a low IC50 as greater potency.

The values below come from patent publication US20240051985A1, “METTL3 MODULATORS” (ACCENT THERAPEUTICS, INC., priority 2020, published 2024).

PRMT5-MEP50, sequence (O14744 whole entry): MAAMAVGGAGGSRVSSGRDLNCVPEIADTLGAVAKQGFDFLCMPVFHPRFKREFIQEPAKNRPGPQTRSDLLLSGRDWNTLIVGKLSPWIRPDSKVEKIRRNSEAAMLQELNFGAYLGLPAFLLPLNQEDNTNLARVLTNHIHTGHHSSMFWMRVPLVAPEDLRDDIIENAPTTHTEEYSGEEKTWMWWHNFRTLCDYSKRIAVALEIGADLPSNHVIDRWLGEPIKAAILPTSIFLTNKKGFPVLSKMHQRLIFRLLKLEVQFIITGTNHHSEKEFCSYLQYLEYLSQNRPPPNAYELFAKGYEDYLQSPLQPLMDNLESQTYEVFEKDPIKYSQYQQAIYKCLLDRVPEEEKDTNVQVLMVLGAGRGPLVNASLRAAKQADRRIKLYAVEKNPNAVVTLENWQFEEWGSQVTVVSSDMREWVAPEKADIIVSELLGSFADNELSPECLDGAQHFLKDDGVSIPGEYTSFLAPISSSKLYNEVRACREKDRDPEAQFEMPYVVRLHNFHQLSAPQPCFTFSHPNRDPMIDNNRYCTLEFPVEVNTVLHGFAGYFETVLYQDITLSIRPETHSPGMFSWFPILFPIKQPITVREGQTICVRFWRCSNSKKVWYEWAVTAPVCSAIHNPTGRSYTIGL
PRMT5-MEP50, sequence (Q9BQA1 whole entry partner): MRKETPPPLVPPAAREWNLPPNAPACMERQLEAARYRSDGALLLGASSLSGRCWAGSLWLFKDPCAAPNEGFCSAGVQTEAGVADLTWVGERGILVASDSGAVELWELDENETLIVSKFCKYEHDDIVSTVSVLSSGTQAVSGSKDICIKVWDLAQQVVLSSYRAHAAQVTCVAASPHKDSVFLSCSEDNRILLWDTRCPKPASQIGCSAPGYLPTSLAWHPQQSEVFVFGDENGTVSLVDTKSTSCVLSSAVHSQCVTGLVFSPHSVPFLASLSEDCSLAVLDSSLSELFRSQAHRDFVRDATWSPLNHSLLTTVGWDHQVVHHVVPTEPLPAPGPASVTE
METTL3/METTL14, sequence (Q86U44 whole entry, species assumed): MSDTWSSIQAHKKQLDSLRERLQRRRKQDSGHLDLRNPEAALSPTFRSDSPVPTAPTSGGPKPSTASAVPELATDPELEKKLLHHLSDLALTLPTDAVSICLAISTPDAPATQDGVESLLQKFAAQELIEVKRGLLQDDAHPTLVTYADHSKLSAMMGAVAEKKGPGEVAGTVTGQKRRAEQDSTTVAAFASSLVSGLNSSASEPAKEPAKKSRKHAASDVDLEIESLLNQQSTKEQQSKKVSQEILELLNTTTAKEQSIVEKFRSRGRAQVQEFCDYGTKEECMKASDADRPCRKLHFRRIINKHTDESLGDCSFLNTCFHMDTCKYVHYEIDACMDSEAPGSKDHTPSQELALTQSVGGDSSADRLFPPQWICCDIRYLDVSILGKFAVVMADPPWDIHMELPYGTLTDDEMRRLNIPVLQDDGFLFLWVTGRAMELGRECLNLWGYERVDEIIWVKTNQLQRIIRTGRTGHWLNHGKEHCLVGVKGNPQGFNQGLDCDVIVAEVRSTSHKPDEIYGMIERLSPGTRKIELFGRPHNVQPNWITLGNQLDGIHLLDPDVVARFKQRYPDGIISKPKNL
METTL3/METTL14, sequence (Q9HCE5 whole entry partner, species assumed): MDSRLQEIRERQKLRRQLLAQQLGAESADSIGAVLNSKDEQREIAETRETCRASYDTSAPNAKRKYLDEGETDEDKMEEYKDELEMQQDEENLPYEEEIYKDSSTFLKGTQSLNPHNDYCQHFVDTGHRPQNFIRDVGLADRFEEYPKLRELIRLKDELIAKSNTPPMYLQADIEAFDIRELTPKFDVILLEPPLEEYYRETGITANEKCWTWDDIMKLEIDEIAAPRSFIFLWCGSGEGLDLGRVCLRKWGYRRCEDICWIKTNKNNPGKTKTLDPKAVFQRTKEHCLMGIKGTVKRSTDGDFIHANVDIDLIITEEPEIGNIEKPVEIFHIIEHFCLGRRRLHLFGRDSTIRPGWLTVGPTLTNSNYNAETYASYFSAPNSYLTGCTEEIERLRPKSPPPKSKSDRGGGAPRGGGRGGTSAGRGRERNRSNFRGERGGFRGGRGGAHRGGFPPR

One experiment has as its target METTL3/METTL14 (Homo sapiens, UniProt Q86U44). Nature of the experiment: METTL3-14 standard enzyme assay (3H-SAM flashplate). As to conditions: Table 4; METTL3 biochemical assay. The gist of the method:
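Radiometric methyltransferase read-out: after quenching with excess unlabelled SAM (15 μM), biotinylated RNA was captured on streptavidin flashplates (2 h, 25° C) and counted. Reactions contained 2.5 nM enzyme (5 min preincubation), 100 nM RNA and 100 nM 3H-SAM, ran 30 min in HEPES pH 7.5 buffer with KCl, MgCl2, DTT.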
Molecule `CN1CC[C@H](NC(=O)[C@H]2O[C@@H](n3cc(-c4ccn(C)n4)c4c(N)ncnc43)[C@H](O)[C@@H]2O)C1` [Compound I-203] gave an IC50 of 100 to 1000 nM.
Still for that read-out and setting: the figure for `CN1[C@@H]2CC[C@H]1C[C@H](NC(=O)[C@H]1O[C@@H](n3cc(-c4ccn(C)n4)c4c(N)ncnc43)[C@H](O)[C@@H]1O)C2` [Compound I-205] is 100 to 1000 nM.
The molecule `Cn1ccc(-c2cn([C@@H]3O[C@H](C(=O)N[C@H]4CC[C@@](C)(O)CC4)[C@@H](O)[C@H]3O)c3ncnc(N)c23)n1` [Compound I-209] displayed an IC50 of 100 to 1000 nM.
In the case of `Cn1ccc(-c2cn([C@@H]3O[C@H](C(=O)NC4CC5(CNC5)C4)[C@@H](O)[C@H]3O)c3ncnc(N)c23)n1` [Compound I-210], the IC50 lay in the range of 100 to 1000 nM.
The molecule `Cn1ccc(-c2cn([C@@H]3O[C@H](C(=O)N[C@H]4CCCNC4)[C@@H](O)[C@H]3O)c3ncnc(N)c23)n1` [Compound I-219] yielded an IC50 of 100 to 1000 nM.
The same measure, in the same setting: the figure for `Cn1ccc(-c2cn([C@@H]3O[C@H](C(=O)N[C@@H]4CCCNC4)[C@@H](O)[C@H]3O)c3ncnc(N)c23)n1` [Compound I-220] is 100 to 1000 nM; for `C[C@@H]1C[C@@H](NC(=O)[C@H]2O[C@@H](n3cc(-c4ccn(C)n4)c4c(N)ncnc43)[C@H](O)[C@@H]2O)CCN1C` [Compound I-233] it is 100 to 1000 nM; for `C[C@H]1C[C@H](NC(=O)[C@H]2O[C@@H](n3cc(-c4ccn(C)n4)c4c(N)ncnc43)[C@H](O)[C@@H]2O)CCN1C` [Compound I-234] it is 100 to 1000 nM.

In another experiment the target is PRMT5-MEP50 (Homo sapiens, UniProt O14744). Description: PRMT5 assay (3H-SAM flashplate). As to conditions: Table 4; PRMT5 biochemical assay. The gist of the method:
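Radiometric methyl-transfer read-out: 3H-methyl transferred to a 3′-biotinylated, acetylated H4 peptide substrate (100 nM) from 3H-SAM (250 nM), captured on streptavidin scintillation plates. Enzyme complex 2.5 nM, pH 8.0 Tris buffer with DTT and Tween, compound preincubation 5 min, 60 min reaction stopped with excess unlabeled SAM.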
`CN1CC[C@H](NC(=O)[C@H]2O[C@@H](n3cc(-c4ccn(C)n4)c4c(N)ncnc43)[C@H](O)[C@@H]2O)C1` [Compound I-203] had an IC50 of 10 to 100 nM.
On the same count and under the same terms, the result for `CN1[C@@H]2CC[C@H]1C[C@H](NC(=O)[C@H]1O[C@@H](n3cc(-c4ccn(C)n4)c4c(N)ncnc43)[C@H](O)[C@@H]1O)C2` [Compound I-205] reads 100 to 1000 nM.
Still for that read-out and setting: the result for `Cn1ccc(-c2cn([C@@H]3O[C@H](C(=O)N[C@H]4CC[C@@](C)(O)CC4)[C@@H](O)[C@H]3O)c3ncnc(N)c23)n1` [Compound I-209] reads no less than 1000 nM.
The molecule `Cn1ccc(-c2cn([C@@H]3O[C@H](C(=O)NC4CC5(CNC5)C4)[C@@H](O)[C@H]3O)c3ncnc(N)c23)n1` [Compound I-210] returned an IC50 of 10 to 100 nM.
On the same count and under the same terms, the result for `Cn1ccc(-c2cn([C@@H]3O[C@H](C(=O)N[C@H]4CCCNC4)[C@@H](O)[C@H]3O)c3ncnc(N)c23)n1` [Compound I-219] reads 10 to 100 nM.
Molecule `Cn1ccc(-c2cn([C@@H]3O[C@H](C(=O)N[C@@H]4CCCNC4)[C@@H](O)[C@H]3O)c3ncnc(N)c23)n1` [Compound I-220] returned a 50% inhibitory concentration (IC50) of less than 10 nM.
On the same count and under the same terms, the result for `C[C@@H]1C[C@@H](NC(=O)[C@H]2O[C@@H](n3cc(-c4ccn(C)n4)c4c(N)ncnc43)[C@H](O)[C@@H]2O)CCN1C` [Compound I-233] reads 100 to 1000 nM; that for `C[C@H]1C[C@H](NC(=O)[C@H]2O[C@@H](n3cc(-c4ccn(C)n4)c4c(N)ncnc43)[C@H](O)[C@@H]2O)CCN1C` [Compound I-234], 100 to 1000 nM.

In another experiment the target is T1, FLT3 (Homo sapiens, UniProt P36888).
T1 sequence (P36888 27-993): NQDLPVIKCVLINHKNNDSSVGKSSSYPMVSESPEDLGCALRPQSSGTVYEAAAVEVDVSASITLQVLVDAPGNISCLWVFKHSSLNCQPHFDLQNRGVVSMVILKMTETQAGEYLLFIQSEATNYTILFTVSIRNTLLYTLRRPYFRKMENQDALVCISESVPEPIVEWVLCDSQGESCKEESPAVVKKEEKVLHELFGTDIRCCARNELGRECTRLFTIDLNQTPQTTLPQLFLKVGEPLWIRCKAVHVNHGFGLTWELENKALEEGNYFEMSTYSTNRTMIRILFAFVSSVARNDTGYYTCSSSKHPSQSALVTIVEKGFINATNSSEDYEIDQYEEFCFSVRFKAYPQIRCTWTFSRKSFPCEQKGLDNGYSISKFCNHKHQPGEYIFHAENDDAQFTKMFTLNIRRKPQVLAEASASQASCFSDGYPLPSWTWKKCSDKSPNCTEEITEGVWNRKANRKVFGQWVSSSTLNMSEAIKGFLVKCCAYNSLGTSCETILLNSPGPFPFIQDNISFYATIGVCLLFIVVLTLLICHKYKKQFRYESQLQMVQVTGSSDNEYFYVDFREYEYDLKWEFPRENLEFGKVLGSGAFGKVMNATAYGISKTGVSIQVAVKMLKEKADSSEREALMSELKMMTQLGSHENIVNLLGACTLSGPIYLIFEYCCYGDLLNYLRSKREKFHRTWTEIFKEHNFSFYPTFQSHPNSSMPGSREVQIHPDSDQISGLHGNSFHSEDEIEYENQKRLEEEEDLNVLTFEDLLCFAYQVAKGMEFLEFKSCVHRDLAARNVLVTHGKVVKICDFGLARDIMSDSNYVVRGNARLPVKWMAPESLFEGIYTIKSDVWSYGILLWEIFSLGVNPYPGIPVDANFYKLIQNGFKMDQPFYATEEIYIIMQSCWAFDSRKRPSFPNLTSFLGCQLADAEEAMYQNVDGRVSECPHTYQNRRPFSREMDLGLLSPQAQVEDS
Description: FLT3 LanthaScreen assay. Conditions: Table 4. The class given is biochemical. The procedure: (§1) FLT3/FLT3-ITD LanthaScreen Assays
(§2) Assays were performed in a 10 μl-volume in 384-well polypropylene microplates (Perkin Elmer Proxiplate, cat. No. 6059480) at ambient temperature. Optimized 1× assay buffer was 50 mM Hepes pH 7.5, 2 mM DTT, 0.01% Tween, 0.01% BSA, 10 mM MgCl2. For compound screening FLT3 (final concentration, f.c.=[…]) or FLT3-ITD (f.c.=[…]) was added using a Multidrop Combi (ThermoFisher Scientific, Waltham, MA) and preincubated for 10 min. Reactions were started by adding fluorescein-poly GT (f.c.=200 nM) and ATP (f.c.=57 μM) substrates. Reactions proceeded for 40 minutes. The reactions were stopped with a detection mixture of EDTA (f.c.=20 mM) and terbium-conjugated anti-phoso tyrosine antibody pY20 (f.c.=2 nM). The plates were sealed and read on an Envision (PerkinElmer, Waltham, MA) using 340 nm excitation and emission reads at 495 and 520 nM.
(In general: TR-FRET usually uses a lanthanide donor and a delayed reading to cut background.)
For the molecule `CN1CC[C@H](NC(=O)[C@H]2O[C@@H](n3cc(-c4ccn(C)n4)c4c(N)ncnc43)[C@H](O)[C@@H]2O)C1` [Compound I-203], the IC50 was no less than 1000 nM.
Same read-out and setting: the figure for `CN1[C@@H]2CC[C@H]1C[C@H](NC(=O)[C@H]1O[C@@H](n3cc(-c4ccn(C)n4)c4c(N)ncnc43)[C@H](O)[C@@H]1O)C2` [Compound I-205] is no less than 1000 nM; for `Cn1ccc(-c2cn([C@@H]3O[C@H](C(=O)N[C@H]4CC[C@@](C)(O)CC4)[C@@H](O)[C@H]3O)c3ncnc(N)c23)n1` [Compound I-209] it is no less than 1000 nM; for `Cn1ccc(-c2cn([C@@H]3O[C@H](C(=O)NC4CC5(CNC5)C4)[C@@H](O)[C@H]3O)c3ncnc(N)c23)n1` [Compound I-210] it is no less than 1000 nM.
The same measure, in the same setting: the result for `Cn1ccc(-c2cn([C@@H]3O[C@H](C(=O)N[C@H]4CCCNC4)[C@@H](O)[C@H]3O)c3ncnc(N)c23)n1` [Compound I-219] reads no less than 1000 nM; that for `Cn1ccc(-c2cn([C@@H]3O[C@H](C(=O)N[C@@H]4CCCNC4)[C@@H](O)[C@H]3O)c3ncnc(N)c23)n1` [Compound I-220], no less than 1000 nM.
Still for that read-out and setting: the figure for `C[C@@H]1C[C@@H](NC(=O)[C@H]2O[C@@H](n3cc(-c4ccn(C)n4)c4c(N)ncnc43)[C@H](O)[C@@H]2O)CCN1C` [Compound I-233] is no less than 1000 nM; for `C[C@H]1C[C@H](NC(=O)[C@H]2O[C@@H](n3cc(-c4ccn(C)n4)c4c(N)ncnc43)[C@H](O)[C@@H]2O)CCN1C` [Compound I-234] it is no less than 1000 nM.

A further experiment deals with T2, FLT3-ITD (Homo sapiens, UniProt P36888).
T2 sequence (P36888 1-993): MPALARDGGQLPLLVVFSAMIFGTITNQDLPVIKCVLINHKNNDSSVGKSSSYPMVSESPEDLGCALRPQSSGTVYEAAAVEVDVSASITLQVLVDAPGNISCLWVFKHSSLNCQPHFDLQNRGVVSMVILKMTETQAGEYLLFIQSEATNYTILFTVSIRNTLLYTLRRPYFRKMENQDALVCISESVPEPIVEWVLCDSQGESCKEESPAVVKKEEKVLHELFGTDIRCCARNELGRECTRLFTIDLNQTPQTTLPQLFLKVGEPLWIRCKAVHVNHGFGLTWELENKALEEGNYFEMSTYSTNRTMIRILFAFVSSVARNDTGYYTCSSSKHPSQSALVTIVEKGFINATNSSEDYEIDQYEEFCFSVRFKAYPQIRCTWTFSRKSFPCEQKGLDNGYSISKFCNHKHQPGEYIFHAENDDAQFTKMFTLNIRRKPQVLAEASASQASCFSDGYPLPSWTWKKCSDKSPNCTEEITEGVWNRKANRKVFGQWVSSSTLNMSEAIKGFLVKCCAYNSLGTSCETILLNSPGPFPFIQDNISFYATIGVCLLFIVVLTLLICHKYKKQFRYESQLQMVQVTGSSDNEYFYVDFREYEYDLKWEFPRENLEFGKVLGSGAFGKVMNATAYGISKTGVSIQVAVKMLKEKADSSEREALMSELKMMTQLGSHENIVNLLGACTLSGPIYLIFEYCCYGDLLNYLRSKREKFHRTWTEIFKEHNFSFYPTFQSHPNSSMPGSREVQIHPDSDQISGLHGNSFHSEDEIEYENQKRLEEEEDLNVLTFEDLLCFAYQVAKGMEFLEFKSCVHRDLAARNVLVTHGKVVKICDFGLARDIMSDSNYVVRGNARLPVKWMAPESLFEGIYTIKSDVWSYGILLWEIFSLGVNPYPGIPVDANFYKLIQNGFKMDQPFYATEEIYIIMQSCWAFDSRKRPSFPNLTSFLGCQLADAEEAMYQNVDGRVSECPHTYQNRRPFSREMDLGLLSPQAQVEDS
Nature of the experiment: FLT3-ITD LanthaScreen assay. The class given is biochemical. As to conditions: Table 4. How it is done:
as §1, §2
`CN1CC[C@H](NC(=O)[C@H]2O[C@@H](n3cc(-c4ccn(C)n4)c4c(N)ncnc43)[C@H](O)[C@@H]2O)C1` [Compound I-203] returned a half-inhibitory concentration (IC50) of no less than 1000 nM.
The same measure, in the same setting: the figure for `CN1[C@@H]2CC[C@H]1C[C@H](NC(=O)[C@H]1O[C@@H](n3cc(-c4ccn(C)n4)c4c(N)ncnc43)[C@H](O)[C@@H]1O)C2` [Compound I-205] is no less than 1000 nM; for `Cn1ccc(-c2cn([C@@H]3O[C@H](C(=O)N[C@H]4CC[C@@](C)(O)CC4)[C@@H](O)[C@H]3O)c3ncnc(N)c23)n1` [Compound I-209] it is no less than 1000 nM; for `Cn1ccc(-c2cn([C@@H]3O[C@H](C(=O)NC4CC5(CNC5)C4)[C@@H](O)[C@H]3O)c3ncnc(N)c23)n1` [Compound I-210] it is no less than 1000 nM.
On to `Cn1ccc(-c2cn([C@@H]3O[C@H](C(=O)N[C@H]4CCCNC4)[C@@H](O)[C@H]3O)c3ncnc(N)c23)n1` [Compound I-219], for which the IC50 is no less than 1000 nM.
For the molecule `Cn1ccc(-c2cn([C@@H]3O[C@H](C(=O)N[C@@H]4CCCNC4)[C@@H](O)[C@H]3O)c3ncnc(N)c23)n1` [Compound I-220], the IC50 was no less than 1000 nM.
Still for that read-out and setting: the figure for `C[C@@H]1C[C@@H](NC(=O)[C@H]2O[C@@H](n3cc(-c4ccn(C)n4)c4c(N)ncnc43)[C@H](O)[C@@H]2O)CCN1C` [Compound I-233] is no less than 1000 nM; for `C[C@H]1C[C@H](NC(=O)[C@H]2O[C@@H](n3cc(-c4ccn(C)n4)c4c(N)ncnc43)[C@H](O)[C@@H]2O)CCN1C` [Compound I-234] it is no less than 1000 nM.
